From patent US8871753B2, “Macrocyclic compounds and their use as kinase inhibitors” (Incyte Corporation, priority 2008, dated 2014)
Counter-ions that a name gives are not always drawn. Like-named read-outs stand apart in the source and are kept apart here.

How the values were obtained:
Format in all cases: biochemical
[1] = target: T1, human JAK1 (a.a. 837-1142) (Homo sapiens, UniProt P23458); assay: In vitro JAK kinase assay (HTRF, phosphorylation of a biotinylated peptide), JAK1; conditions: read-out: JAK1 IC50
T1 construct: human JAK1 (a.a. 837-1142); His tag (N); made in house; host or cells: insect cells (baculovirus)
Outline: (§1)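 Kinase reactions ran at room temperature for 1 h with ATP matched per isoform (JAK1 90 μM, JAK2 30 μM, JAK3 3 μM). After an EDTA stop, the phosphorylated biotin-peptide was read by HTRF using Eu-Py20 and SA-APC after 40 min binding.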

[2] = target: T2, human JAK3 (a.a. 781-1124) (Homo sapiens, UniProt P52333); assay: In vitro JAK kinase assay (HTRF, phosphorylation of a biotinylated peptide), JAK3
T2 construct: JAK3 (a.a. 781-1124); His tag (N); made in house; host or cells: insect cells (baculovirus)
Outline: as §1

[3] = target: T3, human JAK2 (a.a. 828-1132) (Homo sapiens, UniProt O60674); assay: In vitro JAK kinase assay (HTRF, phosphorylation of a biotinylated peptide), JAK2
T3 construct: JAK2 (a.a. 828-1132); His tag (N); made in house; host or cells: insect cells (baculovirus)
Outline: as §1

[4] = target: TYK2 (Homo sapiens, UniProt P29597); assay: TYK2 kinase inhibition (Table A1)
TYK2, sequence (P29597 whole entry): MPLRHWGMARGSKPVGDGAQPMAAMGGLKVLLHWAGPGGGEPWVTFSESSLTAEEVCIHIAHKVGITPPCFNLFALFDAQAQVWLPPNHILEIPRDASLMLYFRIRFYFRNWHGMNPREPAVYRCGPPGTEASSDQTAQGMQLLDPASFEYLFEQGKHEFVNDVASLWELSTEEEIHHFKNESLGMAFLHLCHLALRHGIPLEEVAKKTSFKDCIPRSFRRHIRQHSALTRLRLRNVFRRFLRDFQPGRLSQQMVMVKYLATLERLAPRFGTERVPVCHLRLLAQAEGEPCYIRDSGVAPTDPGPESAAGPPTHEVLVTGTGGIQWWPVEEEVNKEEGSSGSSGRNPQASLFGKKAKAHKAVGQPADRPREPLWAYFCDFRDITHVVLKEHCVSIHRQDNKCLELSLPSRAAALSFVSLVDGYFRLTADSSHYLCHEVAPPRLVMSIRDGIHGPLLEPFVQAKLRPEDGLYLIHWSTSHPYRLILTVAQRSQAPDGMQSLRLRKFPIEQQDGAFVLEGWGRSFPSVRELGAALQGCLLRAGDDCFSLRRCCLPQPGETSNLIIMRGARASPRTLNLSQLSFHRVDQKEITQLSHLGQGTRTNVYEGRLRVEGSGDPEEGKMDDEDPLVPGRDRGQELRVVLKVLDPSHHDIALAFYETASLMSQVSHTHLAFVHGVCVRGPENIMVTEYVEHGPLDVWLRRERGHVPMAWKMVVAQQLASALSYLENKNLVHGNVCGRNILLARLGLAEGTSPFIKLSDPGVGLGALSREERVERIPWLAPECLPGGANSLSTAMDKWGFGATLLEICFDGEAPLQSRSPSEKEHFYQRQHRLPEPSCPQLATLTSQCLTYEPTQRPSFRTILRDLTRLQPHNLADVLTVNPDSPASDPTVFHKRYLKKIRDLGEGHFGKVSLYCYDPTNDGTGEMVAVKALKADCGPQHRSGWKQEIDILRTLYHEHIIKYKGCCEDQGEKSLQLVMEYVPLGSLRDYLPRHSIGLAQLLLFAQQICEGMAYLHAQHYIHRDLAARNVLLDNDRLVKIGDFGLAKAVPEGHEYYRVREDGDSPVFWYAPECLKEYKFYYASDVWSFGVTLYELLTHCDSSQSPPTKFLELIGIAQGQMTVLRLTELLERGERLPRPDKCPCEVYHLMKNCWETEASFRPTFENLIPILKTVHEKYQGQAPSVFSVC

T1 sequence (P23458 849-1154): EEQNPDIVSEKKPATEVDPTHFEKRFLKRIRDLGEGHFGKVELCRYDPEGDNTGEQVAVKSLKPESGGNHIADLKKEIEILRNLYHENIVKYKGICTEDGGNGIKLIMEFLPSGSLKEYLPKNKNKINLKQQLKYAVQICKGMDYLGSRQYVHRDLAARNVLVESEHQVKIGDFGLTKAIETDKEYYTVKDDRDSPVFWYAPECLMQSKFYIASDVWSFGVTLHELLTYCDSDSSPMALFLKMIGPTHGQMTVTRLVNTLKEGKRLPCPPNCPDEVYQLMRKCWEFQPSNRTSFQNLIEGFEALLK
T2 sequence (P52333 781-1124): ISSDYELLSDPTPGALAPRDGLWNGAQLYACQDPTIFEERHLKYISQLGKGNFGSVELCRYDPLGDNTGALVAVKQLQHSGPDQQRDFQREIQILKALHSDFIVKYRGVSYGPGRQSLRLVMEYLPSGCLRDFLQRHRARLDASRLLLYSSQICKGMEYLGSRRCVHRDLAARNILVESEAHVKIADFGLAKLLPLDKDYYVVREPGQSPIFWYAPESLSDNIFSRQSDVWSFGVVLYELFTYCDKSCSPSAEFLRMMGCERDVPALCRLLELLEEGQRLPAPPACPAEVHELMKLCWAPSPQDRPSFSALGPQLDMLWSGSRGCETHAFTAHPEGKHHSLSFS
T3 sequence (O60674 828-1132): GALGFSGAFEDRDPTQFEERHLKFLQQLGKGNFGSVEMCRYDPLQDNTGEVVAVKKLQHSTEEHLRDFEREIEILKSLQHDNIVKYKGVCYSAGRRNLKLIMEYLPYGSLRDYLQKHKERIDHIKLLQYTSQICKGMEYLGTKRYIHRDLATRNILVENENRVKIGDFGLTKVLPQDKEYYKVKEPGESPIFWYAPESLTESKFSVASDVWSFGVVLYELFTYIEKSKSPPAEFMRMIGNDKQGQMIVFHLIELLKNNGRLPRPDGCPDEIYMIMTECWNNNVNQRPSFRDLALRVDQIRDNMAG

IC50 ([1]; Table D1) [nM]	IC50 ([2]; Table D1) [nM]	IC50 ([3]; Table D1) [nM]	IC50 ([4]; Table D1) [nM]	IC50 [1] [nM]	IC50 [2] [nM]	IC50 [3] [nM]	IC50 [4] [nM]	SMILES
34	> 400	235	> 400	–	–	–	–	CNC(=O)N1CCN(C(=O)COc2ccc3cc2CCc2cncc(c2)Nc2ncc(Cl)c(n2)N3)CC1 [Example D265, 4-({[6-Chloro-2,4,8,18,22-pentaazatetracyclo[14.3.1.1(3,7).1(9,13)]docosa-1(20),3(22),4,6,9(21),10,12,16,18-nonaen-12-yl]oxy}acetyl)-N-methylpiperazine-1-carboxamide bis(trifluoroacetate)]
–	–	–	–	22	1140	31	88	Cc1nc(C)c(CC(=O)Nc2ccc3cc2CCc2cccc(c2)Nc2ncc(Cl)c(n2)N3)s1 [Example C43, N-[6-Chloro-2,4,8,22-tetraazatetracyclo[14.3.1.1(3,7).1(9,13)]docosa-1(20),3(22),4,6,9(21),10,12,16,18-nonaen-12-yl]-2-(2,4-dimethyl-1,3-thiazol-5-yl)acetamide trifluoroacetate]
75	> 400	> 400	> 400	–	–	–	–	O=C(COc1ccc2cc1CCc1cncc(c1)Nc1ncc(Cl)c(n1)N2)N1CCN(C(=O)C2CCOC2)CC1 (centres unmarked) [Example D271, 6-Chloro-12-{2-oxo-2-[4-(tetrahydrofuran-3-ylcarbonyl)piperazin-1-yl]ethoxy}-2,4,8,18,22-pentaazatetracyclo[14.3.1.1(3,7).1(9,13)]docosa-1(20),3(22),4,6,9(21),10,12,16,18-nonaene bis(trifluoroacetate)]
150	> 400	> 400	> 400	–	–	–	–	COCC(=O)N1CCN(C(=O)COc2ccc3cc2CCc2cncc(c2)Nc2ncc(Cl)c(n2)N3)CC1 [Example D262, 6-Chloro-12-{2-[4-(methoxyacetyl)piperazin-1-yl]-2-oxoethoxy}-2,4,8,18,22-pentaazatetracyclo[14.3.1.1(3,7).1(9,13)]docosa-1(20),3(22),4,6,9(21),10,12,16,18-nonaene bis(trifluoroacetate)]
–	–	–	–	217	> 400	> 400	> 400	Cc1cc(C(=O)N2CCC(COc3ccc4cc3CCc3cncc(c3)Nc3ncc(Cl)c(n3)N4)C2)no1 (centres unmarked) [Example C58, 6-Chloro-12-({1-[(5-methylisoxazol-3-yl)carbonyl]pyrrolidin-3-yl}methoxy)-2,4,8,18,22-pentaazatetracyclo[14.3.1.1(3,7).1(9,13)]docosa-1(20),3(22),4,6,9(21),10,12,16,18-nonaene bis(trifluoroacetate)]
72	> 400	148	> 400	–	–	–	–	CC(=O)N1CCC(COc2ccc3cc2CCc2cncc(c2)Nc2ncc(Cl)c(n2)N3)CC1 [Example D227, 12-[(1-Acetylpiperidin-4-yl)methoxy]-6-chloro-2,4,8,18,22-pentaazatetracyclo[14.3.1.1(3,7).1(9,13)]docosa-1(20),3(22),4,6,9(21),10,12,16,18-nonaene bis(trifluoroacetate)]
80	> 400	358	> 400	–	–	–	–	O=C(COc1ccc2cc1CCc1cncc(c1)Nc1ncc(Cl)c(n1)N2)N1CCN(c2cc(Cl)ccn2)CC1 [Example D244, 6-Chloro-12-{2-[4-(4-chloropyridin-2-yl)piperazin-1-yl]-2-oxoethoxy}-2,4,8,18,22-pentaazatetracyclo[14.3.1.1(3,7).1(9,13)]docosa-1(20),3(22),4,6,9(21),10,12,16,18-nonaene tris(trifluoroacetate)]
150	> 400	265	> 400	–	–	–	–	O=C(c1cnccn1)N1CCC(CCOc2ccc3cc2CCc2cncc(c2)Nc2ncc(Cl)c(n2)N3)CC1 [Example D177, 6-Chloro-12-{2-[1-(pyrazin-2-ylcarbonyl)piperidin-4-yl]ethoxy}-2,4,8,18,22-pentaazatetracyclo[14.3.1.1(3,7).1(9,13)]docosa-1(20),3(22),4,6,9(21),10,12,16,18-nonaene tris(trifluoroacetate)]
150	> 400	> 400	> 400	–	–	–	–	CC1(C)Cc2cccc(NC(=O)N3CCC(CCOc4ccc5cc4CCc4cncc(c4)Nc4ncc(Cl)c(n4)N5)CC3)c2O1 [Example D175, 4-(2-{[6-Chloro-2,4,8,18,22-pentaazatetracyclo[14.3.1.1(3,7).1(9,13)]docosa-1(20),3(22),4,6,9(21),10,12,16,18-nonaen-12-yl]oxy}ethyl)-N-(2,2-dimethyl-2,3-dihydro-1-benzofuran-7-yl)piperidine-1-carboxamide bis(trifluoroacetate)]
265	> 400	> 400	> 400	–	–	–	–	Cc1oncc1C(=O)N1CCC(CCOc2ccc3cc2CCc2cncc(c2)Nc2ncc(Cl)c(n2)N3)CC1 [Example D178, 6-Chloro-12-(2-{1-[(5-methylisoxazol-4-yl)carbonyl]piperidin-4-yl}ethoxy)-2,4,8,18,22-pentaazatetracyclo[14.3.1.1(3,7).1(9,13)]docosa-1(20),3(22),4,6,9(21),10,12,16,18-nonaene bis(trifluoroacetate)]
115	> 400	313	> 400	–	–	–	–	O=C(c1ccncc1)N1CCC(CCOc2ccc3cc2CCc2cncc(c2)Nc2ncc(Cl)c(n2)N3)CC1 [Example D181, 6-Chloro-12-[2-(1-isonicotinoylpiperidin-4-yl)ethoxy]-2,4,8,18,22-pentaazatetracyclo[14.3.1.1(3,7).1(9,13)]docosa-1(20),3(22),4,6,9(21),10,12,16,18-nonaene tris(trifluoroacetate)]
84	> 400	300	> 400	–	–	–	–	N#CC1(C(=O)N2CCN(C(=O)COc3ccc4cc3CCc3cncc(c3)Nc3ncc(Cl)c(n3)N4)CC2)CC1 [Example D267, 1-{[4-({[6-Chloro-2,4,8,18,22-pentaazatetracyclo[14.3.1.1(3,7).1(9,13)]docosa-1(20),3(22),4,6,9(21),10,12,16,18-nonaen-12-yl]oxy}acetyl)piperazin-1-yl]carbonyl}cyclopropanecarbonitrile bis(trifluoroacetate)]
–	–	–	–	91	> 10000	173	793	O=C(c1cccs1)N1Cc2cccc(c2)Nc2ncc(Cl)c(n2)Nc2cccc1c2 [Example C25, 6-Chloro-14-(2-thienylcarbonyl)-2,4,8,14,22-pentaazatetracyclo[14.3.1.1(3,7).1(9,13)]docosa-1(20),3(22),4,6,9(21),10,12,16,18-nonaene]
18	> 1000	94	170	–	–	–	–	O=C(CC1CN(C(=O)c2cn[nH]c2)C1)Nc1ccc2cc1CCc1cncc(c1)Nc1ncc(Cl)c(n1)N2 [Example D149, N-[6-Chloro-2,4,8,18,22-pentaazatetracyclo[14.3.1.1(3,7).1(9,13)]docosa-1(20),3(22),4,6,9(21),10,12,16,18-nonaen-12-yl]-2-[1-(1H-pyrazol-4-ylcarbonyl)azetidin-3-yl]acetamide bis(trifluoroacetate)]
